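Tested at 5 concentrations; 48 h exposure; 96-well plates; endpoints linearly interpolated, else capped at highest concentration. GI50: concentration for 50% inhibition of growth.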 Calls of active or inactive are those of the source. Rule as the data show it: active = GI50 up to about 1.1 µM and inactive = higher.
Assays:
Assay in all cases: growth of human tumour cells (NCI), 48 h
[1] = system: SNB-75
[2] = system: NCI/ADR-RES
[3] = system: NCI-H460
[4] = system: MDA-MB-231
[5] = system: U-251
[6] = system: K562
[7] = system: SK-OV-3
[8] = system: RPMI-8226
[9] = system: ACHN
[10] = system: OVCAR-8
[11] = system: UACC-62
[12] = system: TK-10
[13] = system: MDA-MB-435
[14] = system: HOP-62
[15] = system: SK-MEL-2
[16] = system: HCT-116
[17] = system: EKVX
[18] = system: SN12C
[19] = system: NCI-H522
[20] = system: UACC-257

Row | SMILES | GI50 [1] | GI50 [2] | GI50 [3] | GI50 [4] | GI50 [5] | GI50 [6] | GI50 [7] | GI50 [8] | GI50 [9] | GI50 [10] | GI50 [11] | GI50 [12] | GI50 [13] | GI50 [14] | GI50 [15] | GI50 [16] | GI50 [17] | GI50 [18] | GI50 [19] | GI50 [20]
1 | Cc1ccc(S(=O)(=O)NC(=O)Nc2nnc(S(N)(=O)=O)s2)cc1 | > 100 µM (inactive) | > 100 µM (inactive) | > 100 µM (inactive) | > 100 µM (inactive) | > 100 µM (inactive) | > 100 µM (inactive) | > 100 µM (inactive) | > 100 µM (inactive) | > 100 µM (inactive) | > 100 µM (inactive) | > 100 µM (inactive) | > 100 µM (inactive) | > 100 µM (inactive) | > 100 µM (inactive) | > 100 µM (inactive) | > 100 µM (inactive) | > 100 µM (inactive) |  |  | 
2 | NC(=O)C1CCCNC1 (configuration not stated) | > 100 µM (inactive) | > 100 µM (inactive) | > 100 µM (inactive) | > 100 µM (inactive) | > 100 µM (inactive) |  | > 100 µM (inactive) | > 100 µM (inactive) | > 100 µM (inactive) | > 100 µM (inactive) | > 100 µM (inactive) | > 100 µM (inactive) | > 100 µM (inactive) | > 100 µM (inactive) | > 100 µM (inactive) | > 100 µM (inactive) | > 100 µM (inactive) | > 100 µM (inactive) | > 100 µM (inactive) | 
3 | COc1cc(C(c2cccc3ccccc23)N2C(=O)CCC2C(=O)O)cc(OC)c1OC (configuration not stated) | > 100 µM (inactive) | > 100 µM (inactive) | > 100 µM (inactive) | > 100 µM (inactive) | > 100 µM (inactive) | > 100 µM (inactive) | > 100 µM (inactive) | > 100 µM (inactive) | > 100 µM (inactive) | > 100 µM (inactive) | > 100 µM (inactive) |  | > 100 µM (inactive) | > 100 µM (inactive) | > 100 µM (inactive) | > 100 µM (inactive) | > 100 µM (inactive) | > 100 µM (inactive) | > 100 µM (inactive) | > 100 µM (inactive)
4 | CC1OC2OC3C(OCC(O)C3O)OC(=O)[C@]34CCC(C)(C)CC3C3=CCC5[C@@]6(C)C[C@H](O)[C@H](OC7OC(CO)C(O)C(O)C7OC7OC(COC(=O)CC(C)(O)CC(=O)OC1C(O)C2O)C(O)C(O)C7O)[C@@](C)(CO)C6CC[C@@]5(C)[C@]3(C)CC4 (some centres not stated) | 1.47 µM (inactive) | 3.01 µM (inactive) | 1.8 µM (inactive) | 1.56 µM (inactive) | 1.57 µM (inactive) |  | 1.56 µM (inactive) | 1.66 µM (inactive) | 1.32 µM (inactive) | 1.65 µM (inactive) | 1.56 µM (inactive) | 1.61 µM (inactive) | 1.57 µM (inactive) | 1.44 µM (inactive) | 1.59 µM (inactive) | 1.63 µM (inactive) |  | 1.96 µM (inactive) | 1.64 µM (inactive) | 1.43 µM (inactive)
5 | Cc1nc(-c2ccccc2)c(C)n2c1nc1ccccc12 | 26.7 µM (inactive) | 23.4 µM (inactive) | 23.8 µM (inactive) | 31.9 µM (inactive) | 30.1 µM (inactive) | 35.3 µM (inactive) | 20.1 µM (inactive) | 14.2 µM (inactive) |  | 25.9 µM (inactive) | 19.3 µM (inactive) | 29.4 µM (inactive) | 24.4 µM (inactive) | 32.4 µM (inactive) | 25.9 µM (inactive) | 31.5 µM (inactive) | 37.2 µM (inactive) | 42.9 µM (inactive) |  | 38.1 µM (inactive)
6 | O=C1c2c(ccc3c2CCCC3)CC12Cc1ccc3c(c1C2=O)CCCC3 | > 100 µM (inactive) | > 100 µM (inactive) | > 100 µM (inactive) | > 100 µM (inactive) | 56.9 µM (inactive) | > 100 µM (inactive) | > 100 µM (inactive) | > 100 µM (inactive) | > 100 µM (inactive) | > 100 µM (inactive) |  | > 100 µM (inactive) | > 100 µM (inactive) | > 100 µM (inactive) | > 100 µM (inactive) | 77.4 µM (inactive) | > 100 µM (inactive) |  | > 100 µM (inactive) | > 100 µM (inactive)
7 | O=C1CSC2(CC(/C=C/c3ccccc3O)=NN2c2cccc(S(=O)(=O)O)c2)N1c1nc2ccccc2s1 (configuration not stated) | 90.8 µM (inactive) | 26.7 µM (inactive) | 34.1 µM (inactive) | 30.1 µM (inactive) | 33.9 µM (inactive) | 24.7 µM (inactive) |  | 16 µM (inactive) | 32.1 µM (inactive) | 17.9 µM (inactive) | 29.4 µM (inactive) | 20 µM (inactive) | 21.4 µM (inactive) |  | 34 µM (inactive) | 38.3 µM (inactive) | 48.1 µM (inactive) | 24.8 µM (inactive) | 15.7 µM (inactive) | 41.7 µM (inactive)
8 | COC(=O)C1C(O)C(C)C(=O)C(C)/C=C\C=C(C)C(=O)Nc2c(C)c(OC(C)=O)c3c(c2O)C(=O)C(C)=C2OCOC(=C23)C(C)=CC(C)(O)C(O)C(C)C1O (configuration not stated) | 49 µM (inactive) | 46.9 µM (inactive) | 32.7 µM (inactive) | > 100 µM (inactive) | 96.8 µM (inactive) | 19.1 µM (inactive) | > 100 µM (inactive) | > 100 µM (inactive) | 26.2 µM (inactive) | 33.7 µM (inactive) | 21.7 µM (inactive) |  | 39.2 µM (inactive) | > 100 µM (inactive) | 25.2 µM (inactive) | 24.9 µM (inactive) | 65.2 µM (inactive) | 31.4 µM (inactive) | 43.5 µM (inactive) | 18.8 µM (inactive)
9 | CC(=O)OC1C[C@@H](C)C2(C[C@H](O)c3ccoc3)C(=O)OC[C@]13C2CCC(O)C31CO1 (some centres not stated) | > 100 µM (inactive) | > 100 µM (inactive) | > 100 µM (inactive) | > 100 µM (inactive) | > 100 µM (inactive) | > 100 µM (inactive) |  | > 100 µM (inactive) | > 100 µM (inactive) | > 100 µM (inactive) | > 100 µM (inactive) | > 100 µM (inactive) | > 100 µM (inactive) | > 100 µM (inactive) | > 100 µM (inactive) | > 100 µM (inactive) |  | > 100 µM (inactive) | > 100 µM (inactive) | > 100 µM (inactive)
10 | COc1ccc2c(c1O)-c1c(OC)c(OC)cc3c1[C@H](C2)[N+](C)(C)CC3 | > 100 µM (inactive) | > 100 µM (inactive) | > 100 µM (inactive) | > 100 µM (inactive) | > 100 µM (inactive) | 0.0409 µM (active) | > 100 µM (inactive) | > 100 µM (inactive) | > 100 µM (inactive) | > 100 µM (inactive) | > 100 µM (inactive) | > 100 µM (inactive) | > 100 µM (inactive) |  | > 100 µM (inactive) | > 100 µM (inactive) | > 100 µM (inactive) | > 100 µM (inactive) | > 100 µM (inactive) | > 100 µM (inactive)

Source: ChEMBL document CHEMBL1201862, “PubChem BioAssay data set” (2004)
